The text below walks through data of paper PMC9401007, “Advances towards Cell‐Specific Gene Transfection: A Small‐Molecule Approach Allows Order‐of‐Magnitude Selectivity” (Chemistry (Weinheim an Der Bergstrasse, Germany), 2022).

The subject of data set [1] is HeLa cells. Put plainly: MTS-based cell-viability assay (CellTiter 96 AQueous One Solution Cell Proliferation Assay). Conditions: 5 h incubation with plasmid DNA 1 µg/ml. The protocol:
(§1) The development of vector 1 is illustrated in Table 1. In order to assess structure–activity relationships (SAR), we analyzed the minimal concentration needed to achieve transfection in steps of 100 μM, the toxicological profile and the transfection efficiency. To get swift access to toxicity data for SAR analysis, the compounds listed in Table 1 were evaluated in an MTS‐based cell‐viability assay, and transfection efficiencies were analyzed by CellProfiler® on HeLa cells (see the Supporting Information for details).[18] […] Amide formation on the N terminus reduced the net charge by 1, and acetylation at this position led to an increased concentration needed for successful transfection (Table 1, Entry B). Finally, the descent in transfection efficiency to 5.9 % highlights the relevance of a fifth positive charge.[19] Apparently, this reduction of positive charges impedes DNA condensation and must be compensated for.
4. Biological experiments
Determination of the toxicity of the compounds was performed using the colorimetric CellTiter 96® AQueous One Solution Cell Proliferation Assay (Promega). […] Absorbance at 490 nm was measured using a GloMax-multi plate reader (Promega). […]

Data set [2] concerns HeLa cells. As to the kind of experiment: Transfection of pH2B-mCherry plasmid, microscopy with CellProfiler readout. It counts as cell-based. Here is the method: as §1
4.2 Transfection and Microscopy
Cells were seeded in a 96-well plate from (Greiner bio-one) 24 h prior to experiments at a confluence of 1x104 in 100 µL of culture growth medium and grown at 37.0 °C, 5% CO2 atmosphere and 95% relative humidity. The vector was dissolved in DMSO. 0.100 µg of DNA were diluted with DB-PBS and an appropriate amount of vector solution added resulting in a total volume of 30 µL. This solution was incubated for 20 min at rt. Afterwards 30.0 µL of culture growth medium was replaced by vector/DNA mixture. All precipitate which had formed during the incubation process was added to the well. After 5 h of incubation the cells were washed with warm DB-PBS buffer (2x100 µL per well) before incubating the cells for 24h at 37.0 °C, 5% CO2 atmosphere and 95% relative humidity. After 24 h the cells were examined under the microscope.
Figure S4. Representative microscopy images of HEK293t, HeLa, CHO, A549 and HCT116 cells 24 h after transfection with 1 (150 µM) with pH2B-mCherry.
Scale bar represents 200 µm. […]
4.3 Quantification of Transfection Results
For quantification of transfection efficiencies, cells were transfected with the pH2B-mCherry plasmid using the different compounds at the described concentrations and stained with DAPI. […] The transfection efficiency was calculated using CellProfiler™.[7] […] Next, the fluorescence intensity in the red channel (Ex = 555 nm; Em > 590 nm) was measured within the segmented nuclei and a threshold was applied.
The ratio between pH2B-mCherry positive nuclei and all nuclei (segmented by DAPI) was determined as transfection efficiency. […]
Figure S7. […] The pipeline recognizes Hoechst-stained nuclei and measures the intensity of the fluorescent reporter protein within the previously calculated nuclei boundaries. […]

In the case of tetralysine-guanidinocarbonylpyrrol, the “Toxicity (qualitative, MTS assay)” value with HeLa cells [1] (concentration range optimal for transfection (for entry A: at the minimal concentration 150 μM), absorbance 490 nm, normalised to DMSO control) is listed as “low (Low=cell viability ≥70 %)”. In addition, the “Toxicity (qualitative, MTS assay) at the optimal concentration” value in the data set with HeLa cells [1] (entry A at 300 μM (opt.)) is listed as “high (high=cell viability <70 %)”. Also, the “Conc.: minimal concentration needed to observe successful transfection during microscopy” value with HeLa cells [2] (analysed in steps of 100 μM, pH2B-mCherry plasmid, 5 h incubation, examined after 24 h) amounted to 150 µM. For the same substance, the “Efficiency: transfection efficiency by CellProfiler readout” value with HeLa cells [2] (at the (minimal) concentration printed in column Conc., fraction of pH2B-mCherry positive nuclei) was determined as 3.2%. The “Efficiency: transfection efficiency by CellProfiler readout at the optimal concentration” value in the data set on HeLa cells [2] (at the concentration marked (opt.): A 300 μM, 1 150 μM) is given as 48%. For the same substance, in the data set with HeLa cells [2] (pH2B-mCherry plasmid), the “Conc. (opt.): concentration of maximum transfection efficiency” value was found to be 300 µM.
